According to ChEMBL document CHEMBL5053512, “Discovery and Preclinical Pharmacology of an Oral Bromodomain and Extra-Terminal (BET) Inhibitor Using Scaffold-Hopping and Structure-Guided Drug Design” (J Med Chem, 2021):

Test: AUC in human LG0787F cells xenografted in NSG mouse at 1 mg/kg/day, po bid
Type: ADME, organism-based
Design: dose 1 mg/kg/day, route po
Conditions: in vivo

Compound: Cc1nnn(C)c1-c1cnc2c3ccc(C(C)(C)O)cc3n([C@H](c3ccccc3)C3CCOCC3)c2c1 [EZOBRESIB]
- AUC: 0.47 µM·h
